Reference: US4563478A, “Method of tranquilizing” (priority 1981, dated 1986)

Tests used:
[1] = system: salmonella thyphimurium, 5 different strains; assay: Mutagenesis (Salmonella, 5 different strains); settings: 1000-100-10 mcg/plate
Description: Mutagenesis (salmonella thyphimurium, 5 different strains): 1000-100-10 mcg/plate: negative.

Schizosacch. pombe P1 = assay: Generic mutation; settings: 1000-100-10 mcg/plate
animals (Rat, Mouse) = assay: Acute toxicity, symptoms observed in the animals (rat, mouse); format: in vivo
Method: Observation period: 14 days
(+) from 500 mg/kg upwards, the animals show sedation symptoms.

[2] = Sub-acute toxicity, 4 weeks; format: in vivo; settings: daily oral and intra-peritoneal 10, 20 and 40 mg/kg/day
Method: After daily oral and intra-peritoneal administration of 10,20 and 40 mg/kg/day of compound (V) for 4 weeks, no effect is observed on mortality, body weight, alimentation, hematological or urinary data, autoptic examination, weight or histology of the organs.

EEG in Rabbits = format: in vivo
Method: At doses of 100 and 50 mg/kg i.v., electrical activity becomes evidently synchronous 10 minutes after administration, and lasts for about 3 hours. […] After 4 hours, behaviour and EEG become normal.

Sacch. cerevisiae D4 = assay: Genetic conversion; settings: 1000-100-10 mcg/plate
[3] = system: cGMP in the rat cerebellum; assay: Effect on the cGMP levels in the rat cerebellum; format: in vivo; settings: i.v., 1 hour after administration, saline = 100
Method: The cGMP is measured 1 hour after administration.

[4] = system: Spinal Medulla of the Cat; assay: Effect on the spinal medulla of the cat; format: in vivo; settings: 3-30 mg/kg i.v.
Acute toxicity, rat = settings: in vivo, observation 14 days, read-out: DL50
Description: (§1) |Observation period: 14 days

Acute toxicity, mouse = settings: in vivo, observation 14 days, read-out: DL50
Description: as §1

[5] = system: Plasmatic Prolactin Levels (PRL); assay: Effect of compound (V) administered intravenously to the rat on plasmatic prolactin levels (PRL); format: in vivo
Description: 4. Effect of Compound (V) Administered Intravenously to the Rat, on the Plasmatic Prolactin Levels (PRL)

[6] = orally or parenterally; cited from earlier work
[7] = line marked (+), route not given

For `O=C(O)CCCNCCC(=O)O` [Compound (V), N-β-carboxyethyl-γ-aminobutyric acid], the Mutagenesis [1] was “negative”, the Generic mutation (Schizosacch. pombe P1) was “negative” and the “dose from which the animals show sedation symptoms” value (animals (Rat, Mouse); in vivo, po, 20160 min) was no less than 500 mg/kg. For the same compound, the symptoms before death (animals (Rat, Mouse); intra-peritoneal (++)) was “ataxia, lack of reaction to stimuli, and dyspnea”, the effect on alimentation [2] was “no effect” and the “effect on autoptic examination” value [2] was “no effect”. The “effect on body weight” value [2] was “no effect”, the “effect on hematological or urinary data” value [2] was “no effect” and the effect on mortality [2] was “no effect”. For the same compound, the “effect on weight or histology of the organs” value [2] was “no effect”, the “basal activity, cortical graph” value (EEG in Rabbits; 100 and 50 mg/kg i.v.) was “replaced by a slow continuous activity prevalent on the cortical graph” and the “behaviour (sedation)” value (EEG in Rabbits; 100 and 50 mg/kg i.v.) was “sedated, but responds to stimuli”. The “desynchronisation of cortical activity by vibro-stimulation and pain stimuli” value (EEG in Rabbits; 100 and 50 mg/kg i.v.) was “do not desynchronise cortical activity”, the “duration of synchronous electrical activity” value (EEG in Rabbits; 100 and 50 mg/kg i.v.) was “about 3 hours” and the “thalamus and hippocampus activity at 4-5 Hz” value (EEG in Rabbits; 100 and 50 mg/kg i.v.) was “replaced by an irregular graph and many slow waves”. For the same compound, the “time after administration at which electrical activity becomes synchronous” value (EEG in Rabbits; 100 and 50 mg/kg i.v.) was 10 min, the “time after which behaviour and EEG become normal” value (EEG in Rabbits; 100 and 50 mg/kg i.v.) was 4 h and the sedative activity (EEG in Rabbits; conclusion from EEG in rabbits, i.v.) was “demonstrates sedative activity”. For the same compound, the “overcoming of the hematoencephalic barrier” value (EEG in Rabbits; rabbit, in vivo, iv) was “overcomes the hematoencephalic barrier”, the Genetic conversion (Sacch. cerevisiae D4) was “doubtful” and the “mutagenic activity for the gene ADE 2” value (Sacch. cerevisiae D4) was “not for the gene ADE 2”. The “mutagenic activity for the gene TPR 5” value (Sacch. cerevisiae D4; only in the presence of a microsomial activator) was “a slight increase in mutagenic activity”, the “cGMP: Relative levels” value ([3]; 1 mg/kg) was 95 ± 8 and the “cGMP: Relative levels” value ([3]; 10 mg/kg) was 68 ± 4. For the same compound, the “cGMP: Relative levels” value ([3]; 30 mg/kg) was 60 ± 5, the “cGMP: Relative levels” value ([3]; 100 mg/kg) was 74 ± 6 and the “activity on the gamma-mononeuron” value [4] was “dose-dependent reduction”. The dorsal root potentials [4] was “dose-dependent reduction”, the “mono and polysynaptic reflexes of the ventral root” value [4] was “dose-dependent reduction” and the LD50 at 336 h (Acute toxicity, rat; ip, intra-peritoneal) was 877 mg/kg. The LD50 at 336 h (Acute toxicity, rat; [7]) was 1000 mg/kg, the LD50 at 336 h (Acute toxicity, rat; oral) was 1000 mg/kg and the LD50 at 336 h (Acute toxicity, mouse; ip, intra-peritoneal) was 783 mg/kg. It also gave an LD50 at 336 h (Acute toxicity, mouse; [7]) of 1000 mg/kg, an LD50 at 336 h (Acute toxicity, mouse; oral) of 1000 mg/kg and a PRL levels ([5]; 100 mg/kg i.v., 0 min) of 4 ng/mL. The PRL levels ([5]; 100 mg/kg i.v., 15 min) was 18 ± 5 ng/mL, the PRL levels ([5]; 100 mg/kg i.v., 30 min) was 4 ± 6 ng/mL and the PRL levels ([5]; 100 mg/kg i.v., 60 min) was 4 ng/mL. For the same compound, the PRL levels ([5]; 200 mg/kg i.v., 0 min) was 4 ng/mL, the PRL levels ([5]; 200 mg/kg i.v., 15 min) was 49 ± 10 ng/mL and the PRL levels ([5]; 200 mg/kg i.v., 30 min) was 5 ± 1 ng/mL. The PRL levels ([5]; 200 mg/kg i.v., 60 min) was 4 ng/mL, the PRL levels ([5]; 300 mg/kg i.v., 0 min) was 4 ng/mL and the PRL levels ([5]; 300 mg/kg i.v., 15 min) was 78 ± 5 ng/mL. The PRL levels ([5]; 300 mg/kg i.v., 30 min) was 21 ± 8 ng/mL, the PRL levels ([5]; 300 mg/kg i.v., 60 min) was 12 ng/mL and the “effect on the prolactin release” value ([5]; intravenous, short intervals after administration) was “dose-dependent effect on the prolactin release”.

For `NCCCC(=O)O` [GABA, gamma-amino butyric acid], the “crossing of the blood-brain barrier (GABA)” value [6] is given as “does not cross the blood-brain barrier”.
